Data on ten compounds can be found in ChEMBL document CHEMBL1201862, “PubChem BioAssay data set” (2004).

Test systems include NCI-H226; HOP-92; UO-31; UACC-62; SF-268; SK-MEL-5; MOLT-4; NCI-H460; SK-MEL-28; MCF7; HL-60; PC-3; SF-295; TK-10; SN12C; U-251; SR; Malme-3M; MDA-N; ACHN.
Assay in all cases: inhibition of tumour cell growth, NCI panel, 48 h

SMILES strings stand for the structures.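 Five compound concentrations were applied to cells in 96-well plates for 48 hours; endpoints were derived by simple linear interpolation of the resulting dose-response curve. GI50 marks 50% less growth.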 The source made the active and inactive calls. Cut-off read from the data, not from the text of the source: active = GI50 up to about 1.1 µM and inactive = higher. Bounds are passed on as bounds.

Take `O=c1cc(/N=N\c2ccc(Br)cc2)[nH]c(=S)[nH]1`: the GI50 in the assay with NCI-H226 is > 100 µM (inactive); in the assay with HOP-92, 19.5 µM (inactive); with UO-31, 55.8 µM (inactive); in the assay with UACC-62 it was 78.3 µM (inactive); with SF-268, 39.3 µM (inactive); with SK-MEL-5 it was 57.1 µM (inactive). Also, the GI50 was 24.5 µM (inactive) in the assay on MOLT-4; 32.7 µM (inactive) in the assay with NCI-H460; 20.4 µM (inactive) with SK-MEL-28; 15.8 µM (inactive) with MCF7; 19.3 µM (inactive) with HL-60; 61.1 µM (inactive) in the assay with PC-3. Besides, the GI50 was > 100 µM (inactive) with SF-295; 17.3 µM (inactive) in the assay on TK-10; 96.4 µM (inactive) in the assay with SN12C; 36.4 µM (inactive) in the assay with U-251; 27.6 µM (inactive) in the assay on SR; 16.4 µM (inactive) in the assay on Malme-3M. Besides, the GI50 in the assay with MDA-N is 49.5 µM (inactive); with ACHN it was 15.9 µM (inactive).
As for `Cc1cn(C2CC(N/C(=N/C#N)NCC3OC(n4cnc5c(N)ncnc54)CC3O)C(CO)O2)c(=O)[nH]c1=O` (stereo not given), the GI50 in the assay on NCI-H226, with HOP-92, in the assay on UO-31, in the assay on UACC-62, in the assay with SF-268 and in the assay with SK-MEL-5 was > 100 µM (inactive) throughout. Also, the GI50 was > 100 µM (inactive) in the assay with MOLT-4; > 100 µM (inactive) in the assay on NCI-H460; > 100 µM (inactive) in the assay on SK-MEL-28; 1.04 µM (active) with MCF7; 77.6 µM (inactive) in the assay on HL-60; > 100 µM (inactive) in the assay with PC-3. The GI50 in the assay on SF-295, in the assay with TK-10, in the assay on SN12C, with U-251, in the assay with SR and with Malme-3M was > 100 µM (inactive) in each case. Besides, the GI50 with MDA-N and in the assay with ACHN was > 100 µM (inactive) throughout.
Take `COc1ccc2nc3n(c2c1)C(=O)c1ccccc1-3`: the GI50 with NCI-H226, in the assay with HOP-92, with UO-31, in the assay on UACC-62, with SF-268 and with SK-MEL-5 was > 100 µM (inactive) each time. For the same compound, the GI50 in the assay with MOLT-4, in the assay on NCI-H460, in the assay on SK-MEL-28, in the assay with MCF7, with HL-60 and in the assay with PC-3 was > 100 µM (inactive) throughout. The GI50 with SF-295, in the assay with TK-10, in the assay with SN12C, in the assay with U-251, in the assay with SR and with Malme-3M was > 100 µM (inactive) each time. Further, the GI50 with MDA-N and in the assay with ACHN was > 100 µM (inactive) each time.
In the case of `COc1ccccc1C(=O)NCC1CCCN2CCCCC12` (stereo not given), the GI50 with NCI-H226, with HOP-92, in the assay on UO-31, in the assay with UACC-62, in the assay on SF-268 and in the assay on SK-MEL-5 was > 100 µM (inactive) in each case. Besides, the GI50 in the assay with MOLT-4, in the assay on NCI-H460, with SK-MEL-28, in the assay with MCF7, with HL-60 and in the assay on PC-3 was > 100 µM (inactive) each time. Further, the GI50 in the assay with SF-295 was 1.24 µM (inactive); in the assay on TK-10, > 100 µM (inactive); with SN12C it was > 100 µM (inactive); in the assay on U-251 it was > 100 µM (inactive); with SR, > 100 µM (inactive); with Malme-3M it was > 100 µM (inactive). The GI50 with MDA-N and with ACHN was > 100 µM (inactive) each time.
Take `CC1=NN(c2nc(N)nc(-c3cc4ccccc4oc3=N)n2)C(C)(C)C1`: the GI50 is 14.7 µM (inactive) in the assay with NCI-H226; 22.9 µM (inactive) in the assay on HOP-92; 19.1 µM (inactive) in the assay on UO-31; 16.2 µM (inactive) in the assay with UACC-62; 19.1 µM (inactive) in the assay on SF-268; 16.8 µM (inactive) in the assay with SK-MEL-5. The GI50 in the assay on MOLT-4 was 12.9 µM (inactive); in the assay on NCI-H460, 17.3 µM (inactive); in the assay with SK-MEL-28, 16.5 µM (inactive); in the assay on MCF7, 27.7 µM (inactive); in the assay on HL-60 it was 18.2 µM (inactive); in the assay on PC-3, 17.1 µM (inactive). In addition, the GI50 in the assay with SF-295 was 18.2 µM (inactive); with TK-10 it was 23.4 µM (inactive); in the assay with SN12C, 19.5 µM (inactive); with U-251, 27 µM (inactive); in the assay on SR it was 19.6 µM (inactive); with Malme-3M, 17.5 µM (inactive). The GI50 was 16.5 µM (inactive) with MDA-N and 19 µM (inactive) in the assay on ACHN.
Take `Nc1cc2c(nc3c4ccccc4c(N)cc3[n+]2-c2cccc3ccccc23)c2ccccc12.Nc1cc2c(nc3c4ccccc4ccc3[n+]2-c2cccc3ccccc23)c2ccccc12`: the GI50 in the assay with NCI-H226 is 12.2 µM (inactive); in the assay with HOP-92 it was 1.2 µM (inactive); in the assay on UO-31 it was 2.59 µM (inactive); with UACC-62, 7.89 µM (inactive); in the assay with SF-268 it was 3.37 µM (inactive); in the assay on SK-MEL-5, 1.7 µM (inactive). In addition, the GI50 was 0.75 µM (active) in the assay with MOLT-4; 0.377 µM (active) with NCI-H460; 7.06 µM (inactive) with SK-MEL-28; 0.507 µM (active) in the assay with MCF7; 1.41 µM (inactive) with HL-60; 0.465 µM (active) in the assay on PC-3. The GI50 in the assay on SF-295 was 2.2 µM (inactive); in the assay with TK-10 it was 0.893 µM (active); with SN12C it was 2.49 µM (inactive); in the assay with U-251, 0.341 µM (active); with SR it was 1.24 µM (inactive); with Malme-3M, 1.6 µM (inactive). The GI50 in the assay with MDA-N was 1.87 µM (inactive); in the assay with ACHN, 2.18 µM (inactive).
As to `CCC(=O)N/S(=N/S(=O)(=O)c1ccccc1)C(Cl)(Cl)Cl` (stereo not given), the GI50 with NCI-H226, in the assay with HOP-92, in the assay on UO-31, in the assay with UACC-62, with SF-268 and in the assay with SK-MEL-5 was > 100 µM (inactive) throughout. For the same compound, the GI50 in the assay on MOLT-4, in the assay on NCI-H460, in the assay with SK-MEL-28, in the assay on MCF7, in the assay with HL-60 and in the assay with PC-3 was > 100 µM (inactive) in each case. In addition, the GI50 with SF-295, with TK-10, with SN12C, with U-251, in the assay with SR and in the assay on Malme-3M was > 100 µM (inactive) each time. The GI50 in the assay with MDA-N and in the assay with ACHN was > 100 µM (inactive) throughout.
On to `COC1CC(NC(=O)C(F)(F)F)C(OC(C)=O)C(C)O1` (stereo not given), for which the GI50 with NCI-H226 is 66.5 µM (inactive); with HOP-92, 72.1 µM (inactive); in the assay on UO-31, > 100 µM (inactive); in the assay on UACC-62, > 100 µM (inactive); in the assay on SF-268, > 100 µM (inactive); in the assay with SK-MEL-5, > 100 µM (inactive). Moreover, the GI50 in the assay on MOLT-4, with NCI-H460, in the assay on SK-MEL-28, in the assay with MCF7, with HL-60 and in the assay on PC-3 was > 100 µM (inactive) throughout. The GI50 in the assay with SF-295, with TK-10, in the assay on SN12C, with U-251, in the assay on SR and in the assay with Malme-3M was > 100 µM (inactive) each time. Further, the GI50 in the assay on MDA-N and in the assay on ACHN was > 100 µM (inactive) in each case.
Consider `CCOC(=O)CCc1ccc(NC(=O)/C=C/c2ccc([N+](=O)[O-])o2)cc1`, for which the GI50 was 4.34 µM (inactive) with NCI-H226; 4.04 µM (inactive) in the assay with HOP-92; 1.61 µM (inactive) in the assay with UO-31; 2.12 µM (inactive) with UACC-62; 1.12 µM (inactive) with SF-268; 1.49 µM (inactive) in the assay on SK-MEL-5. For the same compound, the GI50 in the assay with MOLT-4 is 0.22 µM (active); with NCI-H460, 2.34 µM (inactive); in the assay with SK-MEL-28, 0.773 µM (active); in the assay on MCF7, 0.426 µM (active); in the assay on HL-60, 0.166 µM (active); in the assay on PC-3, 3.03 µM (inactive). Moreover, the GI50 in the assay with SF-295 was 3.48 µM (inactive); in the assay on TK-10 it was 1.48 µM (inactive); with SN12C, 1.43 µM (inactive); in the assay on U-251 it was 2.12 µM (inactive); in the assay on SR it was 0.155 µM (active); in the assay with Malme-3M, 1.49 µM (inactive). Moreover, the GI50 with MDA-N is 0.807 µM (active); with ACHN it was 1.34 µM (inactive).
Regarding `Nc1n[nH]c(N)n1` [GUANAZOLE], the GI50 was 5860 µM (inactive) in the assay on NCI-H226; 5190 µM (inactive) in the assay with HOP-92; 7030 µM (inactive) in the assay with UO-31; 2620 µM (inactive) in the assay with UACC-62; 5740 µM (inactive) in the assay on SF-268; 3940 µM (inactive) in the assay on SK-MEL-5. Further, the GI50 was 3170 µM (inactive) in the assay on MOLT-4; 3270 µM (inactive) in the assay with NCI-H460; > 6150 µM (inactive) in the assay with SK-MEL-28; 3400 µM (inactive) with MCF7; 1420 µM (inactive) in the assay on HL-60; 8510 µM (inactive) with PC-3. Moreover, the GI50 is 2360 µM (inactive) in the assay on SF-295; > 10000 µM (inactive) in the assay on TK-10; 4930 µM (inactive) in the assay with SN12C; 3800 µM (inactive) with U-251; 3300 µM (inactive) in the assay on SR; 9100 µM (inactive) in the assay on Malme-3M. Also, the values for the GI50 in the assay on MDA-N and in the assay on ACHN were 8570 µM (inactive) and 1890 µM (inactive), respectively.
